From ChEMBL document CHEMBL1201862, “PubChem BioAssay data set” (2004)
The source made the active and inactive calls.

Key:
Cytochrome P450 3A4 = Cytochrome P450 3A4 (Homo sapiens, UniProt P08684);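 note: CYP3A4 tested as one member of a cytochrome P450 panel screen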
Cytochrome P450 2C9 = Cytochrome P450 2C9 (Homo sapiens, UniProt P11712)
[1] = Luminescence Cell-Based Dose Confirmation HTS to Identify Inhibitors of Platelet Dense Granule Release. [Related pubchem assays: 1663 (Primary HTS), 1678 (Summary of Project)]; assay type: functional
[2] = target: Luciferin 4-monooxygenase (Photinus pyralis, UniProt P08659); assay: inhibition of purified Photinus pyralis luciferase – biochemical, luminescence, dose response (AID 1891)
INS1 = assay: INS-1E survival protection against cytokine death – cell-based, luminescence, retest, dose response (AID 449756); assay type: functional; details: Rattus norvegicus;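 note: cell death triggered by IL-1 beta plus TNF-alpha plus IFN-gamma mixture; protective hits raise ATP signal compared with cytokine alone wells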
[3] = target: T1, Rac GTPase-activating protein 1 (Homo sapiens, UniProt Q9H0H5); assay: blockers of MgcRacGAP-driven Rac1 GTP hydrolysis – biochemical, ADP Hunter fluorescence, primary and confirmatory, confirmation (AID 624330); assay type: functional
T1 sequence (Q9H0H5 whole entry): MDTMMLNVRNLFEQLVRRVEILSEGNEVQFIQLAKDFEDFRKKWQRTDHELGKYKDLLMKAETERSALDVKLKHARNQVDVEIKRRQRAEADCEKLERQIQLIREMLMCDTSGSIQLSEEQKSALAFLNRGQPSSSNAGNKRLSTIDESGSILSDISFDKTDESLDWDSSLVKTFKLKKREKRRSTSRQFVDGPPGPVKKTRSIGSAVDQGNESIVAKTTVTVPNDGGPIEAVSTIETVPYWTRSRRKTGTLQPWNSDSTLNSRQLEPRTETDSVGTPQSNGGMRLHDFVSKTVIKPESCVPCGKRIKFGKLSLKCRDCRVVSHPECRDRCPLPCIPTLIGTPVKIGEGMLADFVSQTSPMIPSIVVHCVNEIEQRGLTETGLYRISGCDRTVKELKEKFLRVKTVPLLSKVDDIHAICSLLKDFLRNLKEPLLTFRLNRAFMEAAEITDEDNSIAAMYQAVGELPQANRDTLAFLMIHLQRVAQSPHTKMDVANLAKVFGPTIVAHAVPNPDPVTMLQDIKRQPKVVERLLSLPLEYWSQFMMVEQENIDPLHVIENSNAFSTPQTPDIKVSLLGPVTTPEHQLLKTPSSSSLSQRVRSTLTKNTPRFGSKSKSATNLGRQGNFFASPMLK

[4] = Trypanosoma cruzi growth suppression in host cells – NIH3T3 host cells, beta-gal luminescence, confirmation (AID 2044); assay type: functional, cell-based;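 note: intracellular parasites grown in NIH/3T3 mouse fibroblasts as host cells; luminescent beta-galactosidase reporter signal from transgenic T. cruzi replicating inside host cells; inhibitors lower the luminescence signal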
[5] = NIH3T3 cell viability loss – ATP luminescence, mouse fibroblasts, counter-screen, dose response (AID 2010); assay type: functional, cell-based;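 note: cells exposed to compound for about 90 hours before reading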
[6] = alpha-synuclein stem-loop luciferase translation blockers – H4 neuroglioma cells, luminescence, confirmation (AID 1988); assay type: functional, cell-based
[7] = luciferase reporter signal suppression in cells – H4 neuroglioma cells, luminescence, dose response (AID 1990); assay type: functional, cell-based
[8] = Luminescence Cell-Based Dose Response HTS to Identify Inhibitors of 5'UTR Stem-Loop Driven Prion Protein mRNA Translation in H4 Neuroglioblastoma Cells. [Related pubchem assays: 1827 (Project Summary), 1813 (Primary HTS)]; assay type: functional
Cytochrome P450 2C19 = Cytochrome P450 2C19 (Homo sapiens, UniProt P33261); assay: Cytochrome panel assay with activity outcomes. Panel member name: p450-cyp2c19 Compounds with AC50 equal or less than 10 uM are considered active; assay type: functional; details: read-out: AC50
Cytochrome P450 2D6 = Cytochrome P450 2D6 (Homo sapiens, UniProt P10635);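 note: CYP2D6 member of a cytochrome P450 panel assay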
Cytochrome P450 1A2 = target: T2, Cytochrome P450 1A2 (Homo sapiens, UniProt P05177);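 note: PubChem cytochrome P450 panel assay, CYP1A2 panel member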
T2 sequence (P05177 whole entry): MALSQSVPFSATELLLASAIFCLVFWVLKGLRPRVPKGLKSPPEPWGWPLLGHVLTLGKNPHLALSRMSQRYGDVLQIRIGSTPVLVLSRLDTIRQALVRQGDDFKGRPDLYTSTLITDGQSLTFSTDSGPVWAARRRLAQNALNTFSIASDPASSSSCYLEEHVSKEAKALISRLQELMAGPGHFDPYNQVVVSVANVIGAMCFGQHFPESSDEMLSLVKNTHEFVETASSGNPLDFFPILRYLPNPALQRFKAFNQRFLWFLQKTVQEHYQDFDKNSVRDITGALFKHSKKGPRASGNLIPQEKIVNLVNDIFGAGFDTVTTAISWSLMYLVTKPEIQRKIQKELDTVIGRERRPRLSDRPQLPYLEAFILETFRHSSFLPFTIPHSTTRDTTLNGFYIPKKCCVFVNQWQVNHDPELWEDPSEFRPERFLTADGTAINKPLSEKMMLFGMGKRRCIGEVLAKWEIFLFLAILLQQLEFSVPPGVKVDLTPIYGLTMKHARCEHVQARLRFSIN

H4 = assay: Luminescence Cell-Based Dose Response HTS to Identify Activators of 5'UTR Stem-Loop Driven Prion Protein mRNA Translation in H4 Neuroglioblastoma Cells. [Related pubchem assays: 1829 (Project Summary), 1814 (Primary HTS)]; assay type: functional; details: Homo sapiens
[9] = Luminescence Cell-Based Dose Response HTS to Identify Activators of Luciferase Translation or Activity in H4 […] Cells. [Related pubchem assays: 1829 (Project Summary), 1814 (Primary HTS)]; assay type: functional
[10] = target: T3, Corticotropin-releasing factor receptor 2/Corticotropin-releasing factor-binding protein (Homo sapiens, UniProt P24387+Q13324); assay: Dose Response confirmation of uHTS hits for small molecule antagonists of the CRF-binding protein and CRF-R2 receptor complex.; assay type: functional; details: read-out: IC50_Mean
T3 sequence (Q13324 whole entry): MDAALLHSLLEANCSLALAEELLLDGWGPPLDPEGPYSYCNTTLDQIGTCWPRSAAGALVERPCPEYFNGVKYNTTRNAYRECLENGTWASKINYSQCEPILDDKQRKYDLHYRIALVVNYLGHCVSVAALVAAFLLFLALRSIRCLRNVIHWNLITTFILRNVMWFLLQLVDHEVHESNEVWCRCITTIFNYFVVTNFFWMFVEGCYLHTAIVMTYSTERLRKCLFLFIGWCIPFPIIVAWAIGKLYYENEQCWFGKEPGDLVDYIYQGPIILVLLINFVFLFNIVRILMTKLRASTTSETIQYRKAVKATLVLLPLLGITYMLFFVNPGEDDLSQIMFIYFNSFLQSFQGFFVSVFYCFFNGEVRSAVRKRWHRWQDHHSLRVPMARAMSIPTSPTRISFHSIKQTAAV
T3 sequence (P24387 whole entry): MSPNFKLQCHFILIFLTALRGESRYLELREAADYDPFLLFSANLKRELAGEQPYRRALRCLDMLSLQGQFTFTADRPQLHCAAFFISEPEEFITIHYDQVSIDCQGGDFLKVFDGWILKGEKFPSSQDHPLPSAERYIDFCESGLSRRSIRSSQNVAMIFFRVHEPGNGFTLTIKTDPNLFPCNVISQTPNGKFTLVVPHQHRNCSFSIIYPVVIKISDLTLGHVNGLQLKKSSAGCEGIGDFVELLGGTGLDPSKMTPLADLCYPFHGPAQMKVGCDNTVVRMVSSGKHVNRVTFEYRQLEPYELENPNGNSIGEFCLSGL

[11] = target: T3, Corticotropin-releasing factor receptor 2/Corticotropin-releasing factor-binding protein; assay: activators of CRF receptor 2 with binding protein – uHTS hits, confirmation (AID 602473); assay type: functional; details: read-out: EC50_Mean
Streptococcus = assay: GAS UMAA2166 growth inhibition – luminescence, BacTiterGlo, counter-screen for streptokinase expression inhibitor project, dose response (AID 1915); assay type: functional, organism-based;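 note: potency for reduction of bacterial viability or growth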
[12] = test system: Streptococcus sp. 'group A'; assay: Streptococcus pyogenes SK(-)GAS viability under kanamycin – luminescence, BacTiterGlo, confirmation, counter-screen for streptokinase expression inhibitor project, dose response (AID 1900); assay type: functional, organism-based

Sequence of Luciferin 4-monooxygenase (P08659 whole entry): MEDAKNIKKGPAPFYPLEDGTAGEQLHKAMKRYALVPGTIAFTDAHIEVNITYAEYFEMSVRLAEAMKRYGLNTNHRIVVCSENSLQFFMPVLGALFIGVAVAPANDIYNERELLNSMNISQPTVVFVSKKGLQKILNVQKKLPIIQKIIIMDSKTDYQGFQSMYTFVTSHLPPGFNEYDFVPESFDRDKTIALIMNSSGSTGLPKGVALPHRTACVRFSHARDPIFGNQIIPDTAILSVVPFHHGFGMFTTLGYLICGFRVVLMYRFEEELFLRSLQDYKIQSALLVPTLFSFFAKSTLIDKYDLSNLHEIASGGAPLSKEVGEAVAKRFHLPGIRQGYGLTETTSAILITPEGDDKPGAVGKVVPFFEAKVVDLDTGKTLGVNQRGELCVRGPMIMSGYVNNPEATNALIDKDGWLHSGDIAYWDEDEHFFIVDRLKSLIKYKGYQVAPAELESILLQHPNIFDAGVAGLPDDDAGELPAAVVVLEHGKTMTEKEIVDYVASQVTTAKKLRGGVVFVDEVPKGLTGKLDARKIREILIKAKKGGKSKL
Sequence of Cytochrome P450 2D6 (P10635 whole entry): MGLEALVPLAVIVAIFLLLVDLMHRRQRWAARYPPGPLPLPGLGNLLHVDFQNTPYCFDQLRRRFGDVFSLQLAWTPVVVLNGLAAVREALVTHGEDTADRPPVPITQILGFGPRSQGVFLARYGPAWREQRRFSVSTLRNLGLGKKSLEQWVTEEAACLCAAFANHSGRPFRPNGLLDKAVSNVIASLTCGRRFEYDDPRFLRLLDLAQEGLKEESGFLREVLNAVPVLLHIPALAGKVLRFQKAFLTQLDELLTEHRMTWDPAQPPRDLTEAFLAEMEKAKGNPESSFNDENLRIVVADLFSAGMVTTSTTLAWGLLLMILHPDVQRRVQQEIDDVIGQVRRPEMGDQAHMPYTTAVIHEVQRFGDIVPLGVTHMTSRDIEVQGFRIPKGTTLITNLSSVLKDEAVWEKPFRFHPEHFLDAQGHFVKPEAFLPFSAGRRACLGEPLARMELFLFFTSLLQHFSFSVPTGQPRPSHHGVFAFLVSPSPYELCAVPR
Sequence of Cytochrome P450 3A4 (P08684 whole entry): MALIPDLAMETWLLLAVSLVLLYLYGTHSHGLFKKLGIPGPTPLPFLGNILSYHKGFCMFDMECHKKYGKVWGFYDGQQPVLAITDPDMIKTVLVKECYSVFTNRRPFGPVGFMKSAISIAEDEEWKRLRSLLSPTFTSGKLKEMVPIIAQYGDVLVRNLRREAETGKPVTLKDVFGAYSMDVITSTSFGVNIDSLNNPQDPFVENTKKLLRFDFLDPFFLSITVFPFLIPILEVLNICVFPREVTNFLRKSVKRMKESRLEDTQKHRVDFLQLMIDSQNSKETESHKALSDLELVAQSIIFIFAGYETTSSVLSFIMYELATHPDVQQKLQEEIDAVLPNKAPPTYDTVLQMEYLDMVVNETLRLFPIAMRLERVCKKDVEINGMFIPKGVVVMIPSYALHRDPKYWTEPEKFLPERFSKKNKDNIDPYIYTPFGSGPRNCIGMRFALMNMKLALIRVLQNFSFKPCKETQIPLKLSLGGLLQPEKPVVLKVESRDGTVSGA
Sequence of Cytochrome P450 2C9 (P11712 whole entry): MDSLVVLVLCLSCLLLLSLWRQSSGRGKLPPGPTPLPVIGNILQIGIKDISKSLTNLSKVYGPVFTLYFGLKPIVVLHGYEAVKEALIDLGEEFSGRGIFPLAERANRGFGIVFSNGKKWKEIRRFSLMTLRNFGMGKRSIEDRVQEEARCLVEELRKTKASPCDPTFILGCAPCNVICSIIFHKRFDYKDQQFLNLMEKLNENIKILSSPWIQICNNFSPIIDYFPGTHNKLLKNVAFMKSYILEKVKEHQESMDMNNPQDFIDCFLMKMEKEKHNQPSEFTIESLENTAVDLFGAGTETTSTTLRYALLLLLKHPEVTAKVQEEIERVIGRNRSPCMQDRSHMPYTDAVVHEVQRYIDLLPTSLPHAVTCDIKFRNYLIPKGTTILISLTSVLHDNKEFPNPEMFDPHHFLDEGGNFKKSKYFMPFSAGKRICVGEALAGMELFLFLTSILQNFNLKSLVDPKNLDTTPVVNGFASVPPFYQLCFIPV
Sequence of Cytochrome P450 2C19 (P33261 whole entry): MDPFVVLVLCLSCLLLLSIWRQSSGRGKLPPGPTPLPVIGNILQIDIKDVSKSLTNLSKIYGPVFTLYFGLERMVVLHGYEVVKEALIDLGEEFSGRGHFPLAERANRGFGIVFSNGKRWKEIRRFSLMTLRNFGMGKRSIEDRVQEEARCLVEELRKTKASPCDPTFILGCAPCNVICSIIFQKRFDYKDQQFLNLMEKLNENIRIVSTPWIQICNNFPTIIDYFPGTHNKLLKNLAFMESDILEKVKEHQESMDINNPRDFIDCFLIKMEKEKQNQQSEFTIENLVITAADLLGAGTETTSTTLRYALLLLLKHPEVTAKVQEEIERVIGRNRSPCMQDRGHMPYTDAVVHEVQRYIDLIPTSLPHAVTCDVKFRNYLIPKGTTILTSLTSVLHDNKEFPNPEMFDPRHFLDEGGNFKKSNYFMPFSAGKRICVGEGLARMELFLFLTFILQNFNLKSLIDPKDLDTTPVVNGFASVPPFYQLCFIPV

SMILES: Cc1ccc(C)n1NC(=O)c1ccccc1
- AC50 (Cytochrome P450 3A4): 31.6 µM (inconclusive)
- AC50 (Cytochrome P450 2C9): 0.141 µM (inconclusive)

SMILES: COCCNC(=O)/C(C#N)=C/c1ccc(O)cc1
- EC50 [1]: 1.62 µM (active)
- EC50 [2]: 4.8 µM (active)

SMILES: Cc1c(Cl)ccc2sc(NC(=O)C3CC3)nc12
- EC50 [1]: > 112 µM (not active)
- EC50 [2]: > 112 µM (not active)

SMILES: Cc1ccccc1OC1C(=O)N(Cc2ccc3c(c2)OCO3)C1c1sccc1C (stereo unspecified)
- AC50 (INS1): 11.4 µM (active)

SMILES: O=C(O)c1nc2nc(Cl)c(Cl)nc2[nH]1
- AC50 (Cytochrome P450 3A4): 3.16 µM (inconclusive)

SMILES: CNc1nc2c3ccccc3n(C(C)=O)c2s1
- EC50 [1]: > 112 µM (not active)
- IC50 [3]: 184 µM (active)
- EC50 [2]: > 112 µM (not active)

SMILES: CC1CCCCN1S(=O)(=O)c1ccc(S(=O)(=O)N(CC(=O)Nc2ccccc2)Cc2cccs2)cc1 (stereo unspecified)
- EC50 [4]: 1.7 µM (active)
- EC50 [5]: > 60 µM (inconclusive)
- EC50 [1]: > 112 µM (not active)
- EC50 [2]: > 112 µM (not active)

SMILES: Cc1nc2cc(-c3cccc(F)c3)nn2c(C)c1CCC(=O)N1CCN(c2ccccn2)CC1
- EC50 [6]: 12.4 µM (active)
- EC50 [7]: 11.9 µM (active)
- EC50 [8]: 14.1 µM (active)

SMILES: CN1CCC(NC(=O)Nc2cccc(C(F)(F)F)c2)CC1
- EC50 [1]: > 112 µM (not active)
- EC50 [2]: > 112 µM (not active)

SMILES: C[C@@H](Cc1ccccc1)Nc1ncnc2c1ncn2[C@@H]1O[C@@H](CO)[C@H](O)[C@@H]1O
- AC50 (Cytochrome P450 3A4): 10 µM (inconclusive)

SMILES: COC(=O)[C@H](N)Cc1ccc(Cl)cc1
- AC50 (Cytochrome P450 3A4): 31.6 µM (inconclusive)

SMILES: Cc1ccc(-c2nc(-c3nccc4ccccc34)oc2-c2ccccc2)cc1
- AC50 (Cytochrome P450 3A4): 5.01 µM (inconclusive)
- AC50 (Cytochrome P450 2C19): 5.01 µM (inconclusive)

SMILES: c1cc2c(cc1C1CCCCC1)c1c3n2CCN[C@H]3CCC1
- AC50 (Cytochrome P450 3A4): 31.6 µM (inconclusive)
- AC50 (Cytochrome P450 2C9): 20 µM (inconclusive)
- AC50 (Cytochrome P450 2D6): 12.6 µM (inconclusive)

SMILES: CC(C)(C)Nc1nc(N2CCCC2)nc(N2CCCC2)n1
- EC50 [6]: 16.7 µM (active)
- AC50 (Cytochrome P450 2C9): 5.01 µM (inconclusive)
- EC50 [7]: 16.7 µM (active)
- EC50 [8]: 19.6 µM (active)

SMILES: CCCCCCC(=O)N1C/C=C\C(c2ccc(OC)cc2)N(Cc2ccc(F)cc2)C(=O)[C@H]1Cc1ccccc1 (stereo partly specified)
- EC50 [6]: 9.71 µM (active)
- AC50 (INS1): 6.16 µM (active)
- EC50 [7]: > 120 µM (not active)
- EC50 [8]: > 120 µM (not active)

SMILES: Cc1ccccc1OCCNc1ccc(C(F)(F)F)cc1[N+](=O)[O-]
- AC50 (Cytochrome P450 3A4): 31.6 µM (inconclusive)
- AC50 (Cytochrome P450 2C19): 0.316 µM (inconclusive)
- AC50 (Cytochrome P450 2D6): 5.01 µM (inconclusive)

SMILES: Nc1ccc(Nc2ccc([N+](=O)[O-])cc2[N+](=O)[O-])cc1
- AC50 (INS1): 59.4 µM (active)

SMILES: Cc1ccc(-c2nnc(C)c(N3CC(C)OC(C)C3)n2)cc1 (stereo unspecified)
- AC50 (Cytochrome P450 3A4): 5.01 µM (inconclusive)
- AC50 (Cytochrome P450 1A2): 4.47 µM (inconclusive)

SMILES: O=C(c1ccc(Cl)s1)N1CCc2ccccc21
- EC50 (H4): 56.2 µM (inconclusive)
- EC50 [9]: 0.124 µM (active)

SMILES: Cc1ccc(-n2nnnc2SCCNS(=O)(=O)c2ccccc2)cc1C
- EC50 [6]: > 120 µM (not active)
- EC50 [7]: > 120 µM (not active)
- EC50 [8]: 20.5 µM (active)

SMILES: O=C(CN(c1ccc(Cl)cc1)S(=O)(=O)c1ccc(Cl)c([N+](=O)[O-])c1)NCCc1ccccc1
- EC50 [4]: 3.56 µM (active)
- EC50 [6]: 9.06 µM (active)
- EC50 [5]: > 60 µM (not active)
- EC50 [7]: > 120 µM (not active)
- EC50 [8]: 8.52 µM (active)

SMILES: O=C(COC(=O)c1ccncc1)Nc1cc(S(=O)(=O)N2CCOCC2)ccc1Cl
- IC50 [10]: > 47.1 µM (inactive)
- EC50 [11]: > 53 µM (inactive)

SMILES: COc1ccc(N(C(=O)c2ccco2)C(C(=O)NC2CCCC2)c2ccc(N3CCOCC3)cc2)c(OC)c1 (stereo unspecified)
- IC50 [10]: > 47.1 µM (inactive)
- EC50 [11]: > 53 µM (inactive)

SMILES: COc1ccc2[nH]c3c(c2c1)CCN1C(=O)C(CC(=O)NCCc2ccccn2)C[C@H](C(=O)N(C(C)C)C(C)C)[C@@]31C (stereo partly specified)
- IC50 [10]: > 47.1 µM (inactive)
- EC50 [11]: > 53 µM (inactive)

SMILES: Cc1[nH]cnc1C(=O)N/N=C/c1c(Cl)cccc1Cl
- EC50 [1]: 1.54 µM (active)
- EC50 [2]: 4.22 µM (active)

SMILES: O=C(CNc1ccccc1)N/N=C/c1c(O)ccc2ccccc12
- EC50 (Streptococcus): 0.939 µM (active)
- AC50 (INS1): 3.29 µM (active)
- EC50 [12]: 1.02 µM (active)

SMILES: O=C(N/N=C\c1ccc(Sc2ccccn2)o1)c1cccc(Br)c1
- AC50 (Cytochrome P450 3A4): 22.4 µM (inconclusive)
- AC50 (Cytochrome P450 2D6): 28.2 µM (inconclusive)

SMILES: CSc1ccc(/C=N/NC(=O)c2ccc(O)cc2)cc1
- EC50 [1]: 13.9 µM (active)
- EC50 [2]: 1.57 µM (active)
